PubChem BioAssay (NCI)
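Compound exposure: 48 hours, 5 concentrations, 96-well plates. TGI marks complete inhibition of growth.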

Legend:
Experiment in all cases: growth of human tumour cells (NCI), 48 h
HOP-92 NSCLC = test system: HOP-92 NSCLC
LOX IMVI melanoma = test system: LOX IMVI melanoma
MALME-3M melanoma = test system: MALME-3M melanoma
KM12 colon = test system: KM12 colon
HCT-15 colon = test system: HCT-15 colon
NCI-H226 lung = test system: NCI-H226 lung
NCI/ADR-RES ovarian = test system: NCI/ADR-RES ovarian
PC-3 prostate = test system: PC-3 prostate
SW-620 colon = test system: SW-620 colon
UO-31 renal = test system: UO-31 renal
HT29 colon = test system: HT29 colon

`O=c1[nH]c(=O)n(C2CC(O)C(CO)O2)c2nc3ccc4ccccc4c3nc12` (stereo not drawn) gave a TGI (HOP-92 NSCLC) greater than 100 µM, a TGI (LOX IMVI melanoma) greater than 100 µM and a TGI (MALME-3M melanoma) greater than 100 µM. For the same molecule, the TGI (KM12 colon) was greater than 100 µM, the TGI (HCT-15 colon) was greater than 100 µM and the TGI (NCI-H226 lung) was greater than 100 µM. The TGI (NCI/ADR-RES ovarian) was greater than 100 µM, the TGI (PC-3 prostate) was greater than 100 µM and the TGI (SW-620 colon) was greater than 100 µM. The TGI (UO-31 renal) was greater than 100 µM.
`COC(=O)/C(=C/CC(N=C(c1ccccc1)c1ccccc1)C(=O)OC)N=C(c1ccccc1)c1ccccc1` (stereo not drawn) was tested, and the TGI (LOX IMVI melanoma) was greater than 100 µM, the TGI (MALME-3M melanoma) was greater than 100 µM and the TGI (KM12 colon) was greater than 100 µM. For the same molecule, the TGI (HCT-15 colon) was greater than 100 µM, the TGI (HT29 colon) was greater than 100 µM and the TGI (SW-620 colon) was greater than 100 µM. The TGI (UO-31 renal) was greater than 100 µM.
`CC1(C)OC(=O)CC12CCN(Cc1ccccc1)CC2` showed a TGI (HOP-92 NSCLC) greater than 100 µM, a TGI (LOX IMVI melanoma) greater than 100 µM and a TGI (MALME-3M melanoma) greater than 100 µM. For the same molecule, the TGI (HCT-15 colon) was greater than 100 µM, the TGI (NCI-H226 lung) was greater than 100 µM and the TGI (HT29 colon) was greater than 100 µM. It also gave a TGI (NCI/ADR-RES ovarian) greater than 100 µM, a TGI (PC-3 prostate) greater than 100 µM and a TGI (UO-31 renal) greater than 100 µM.
In the case of `CCO/C(O)=C(/C(=N)N1CCCC1)C(=O)Nc1ccc(Cl)cc1`, the TGI (LOX IMVI melanoma) was greater than 100 µM, the TGI (MALME-3M melanoma) was greater than 100 µM and the TGI (KM12 colon) was greater than 100 µM. It also gave a TGI (HCT-15 colon) greater than 100 µM, a TGI (NCI-H226 lung) greater than 100 µM and a TGI (HT29 colon) greater than 100 µM. For the same molecule, the TGI (NCI/ADR-RES ovarian) was greater than 100 µM, the TGI (PC-3 prostate) was greater than 100 µM and the TGI (SW-620 colon) was greater than 100 µM.
For `CN1CCC/C1=C1\C(=O)c2cccn2C1=O`, the TGI (LOX IMVI melanoma) was greater than 100 µM, the TGI (MALME-3M melanoma) was greater than 100 µM and the TGI (KM12 colon) was greater than 100 µM. It also gave a TGI (HCT-15 colon) greater than 100 µM, a TGI (NCI-H226 lung) greater than 100 µM and a TGI (HT29 colon) greater than 100 µM. The TGI (NCI/ADR-RES ovarian) was greater than 100 µM, the TGI (PC-3 prostate) was greater than 100 µM and the TGI (SW-620 colon) was greater than 100 µM. The TGI (UO-31 renal) was greater than 100 µM.
`N#CC1=C(N)Nc2nc3ccccc3n2C1c1ccccc1` (stereo not drawn) gave a TGI (LOX IMVI melanoma) greater than 100 µM, a TGI (KM12 colon) greater than 100 µM and a TGI (HCT-15 colon) greater than 100 µM. For the same molecule, the TGI (HT29 colon) was greater than 100 µM, the TGI (NCI/ADR-RES ovarian) was greater than 100 µM and the TGI (PC-3 prostate) was greater than 100 µM. The TGI (SW-620 colon) was greater than 100 µM and the TGI (UO-31 renal) was greater than 100 µM.
In the case of `C=CC(c1ccccc1)C1(O)c2cccc(O)c2C(=O)c2c(O)cccc21` (stereo not drawn), the TGI (HOP-92 NSCLC) was 30.5 µM, the TGI (LOX IMVI melanoma) was 29.9 µM and the TGI (KM12 colon) was 40.9 µM. For the same molecule, the TGI (HCT-15 colon) was 29.4 µM, the TGI (NCI-H226 lung) was 39.8 µM and the TGI (HT29 colon) was 25.3 µM. The TGI (NCI/ADR-RES ovarian) was 31.2 µM, the TGI (PC-3 prostate) was 28.1 µM and the TGI (SW-620 colon) was 37 µM. It also gave a TGI (UO-31 renal) of 41.6 µM.
For `O=C(/C=C\c1ccccc1-c1ccccc1)c1ccccc1`, the TGI (HOP-92 NSCLC) was greater than 100 µM, the TGI (KM12 colon) was greater than 100 µM and the TGI (HCT-15 colon) was greater than 100 µM. For the same molecule, the TGI (NCI-H226 lung) was greater than 100 µM, the TGI (HT29 colon) was greater than 100 µM and the TGI (NCI/ADR-RES ovarian) was greater than 100 µM. It also gave a TGI (SW-620 colon) greater than 100 µM and a TGI (UO-31 renal) greater than 100 µM.
`N#CC1=C(N2CCOCC2)CCC1` was tested, and the TGI (LOX IMVI melanoma) was greater than 100 µM, the TGI (MALME-3M melanoma) was greater than 100 µM and the TGI (KM12 colon) was greater than 100 µM. It also gave a TGI (HCT-15 colon) greater than 100 µM, a TGI (NCI-H226 lung) greater than 100 µM and a TGI (HT29 colon) greater than 100 µM. It also gave a TGI (NCI/ADR-RES ovarian) greater than 100 µM, a TGI (PC-3 prostate) greater than 100 µM and a TGI (SW-620 colon) greater than 100 µM. The TGI (UO-31 renal) was greater than 100 µM.
`CSC(=N)N1N=C2c3ccccc3CC[C@@H]2[C@@H]1c1ccccc1` gave a TGI (HOP-92 NSCLC) of 20.4 µM, a TGI (LOX IMVI melanoma) of 28.5 µM and a TGI (MALME-3M melanoma) of 25.9 µM. For the same molecule, the TGI (KM12 colon) was 27.9 µM, the TGI (HCT-15 colon) was 31 µM and the TGI (NCI-H226 lung) was 22.6 µM. For the same molecule, the TGI (HT29 colon) was 23.6 µM, the TGI (SW-620 colon) was 29.9 µM and the TGI (UO-31 renal) was 22.4 µM.
For `Cc1ccccc1NC(=O)/C(C#N)=N\Nc1nc[nH]c1C(N)=O`, the TGI (MALME-3M melanoma) was greater than 100 µM, the TGI (KM12 colon) was greater than 100 µM and the TGI (HCT-15 colon) was greater than 100 µM. For the same molecule, the TGI (NCI-H226 lung) was greater than 100 µM, the TGI (HT29 colon) was greater than 100 µM and the TGI (NCI/ADR-RES ovarian) was greater than 100 µM. The TGI (PC-3 prostate) was greater than 100 µM, the TGI (SW-620 colon) was greater than 100 µM and the TGI (UO-31 renal) was greater than 100 µM.
In the case of `Cc1cc2nc3c(C#N)c(-c4ccccc4)cc(Nc4ccc(F)cc4)n3c2cc1C`, the TGI (HOP-92 NSCLC) was 36.5 µM, the TGI (LOX IMVI melanoma) was 29 µM and the TGI (MALME-3M melanoma) was 70 µM. For the same molecule, the TGI (KM12 colon) was greater than 100 µM, the TGI (HCT-15 colon) was greater than 100 µM and the TGI (NCI-H226 lung) was 73.7 µM. It also gave a TGI (HT29 colon) greater than 100 µM, a TGI (NCI/ADR-RES ovarian) of 71.6 µM and a TGI (SW-620 colon) greater than 100 µM.
